Results taken from article PMC11259535 (ACS chemical biology, 2024).
Positions count from the first letter of the chain named.

T1: succinyl-CoA:glutarate-CoA transferase (SUGCT) (Homo sapiens, UniProt Q9HAC7, Q255A/K256A)
T1 sequence (Q9HAC7 31-438 Q255A/K256A): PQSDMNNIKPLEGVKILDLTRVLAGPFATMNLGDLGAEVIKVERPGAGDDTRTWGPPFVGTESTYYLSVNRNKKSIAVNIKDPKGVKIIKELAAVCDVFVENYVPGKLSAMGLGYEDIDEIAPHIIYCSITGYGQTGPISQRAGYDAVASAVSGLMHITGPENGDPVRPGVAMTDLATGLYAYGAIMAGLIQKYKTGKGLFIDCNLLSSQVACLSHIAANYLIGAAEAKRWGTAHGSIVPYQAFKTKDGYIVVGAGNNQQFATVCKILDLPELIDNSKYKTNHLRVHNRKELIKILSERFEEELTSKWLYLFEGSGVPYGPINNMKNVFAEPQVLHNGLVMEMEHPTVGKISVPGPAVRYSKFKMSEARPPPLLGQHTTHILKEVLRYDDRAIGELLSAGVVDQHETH

B1: succinyl-CoA:glutarate-CoA transferase (SUGCT) (Homo sapiens) (protein)
chain: T1 sequence (Q9HAC7 31-438 Q255A/K256A) with A225Q, A226K

Experiments:
[1] = biological target: T1, succinyl-CoA:glutarate-CoA transferase (SUGCT); test: co-crystal structure; assay type: binding
[2] = substrate: CC(C)(COP(=O)(O)OP(=O)(O)OC[C@H]1O[C@@H](n2cnc3c(N)ncnc32)[C@H](O)[C@@H]1OP(=O)(O)O)[C@@H](O)C(=O)NCCC(=O)NCCSC(=O)CCCC(=O)O; test: saturation kinetics; assay type: biochemical, Homo sapiens

Molecule	co-crystal structure [1]	Km [2]
CCCCc1nc(Cl)c(C(=O)O)n1Cc1ccc(-c2ccccc2-c2nn[nH]n2)cc1 [losartan carboxylic acid]	There was unambiguous density for losartan carboxylic acid in one of the four active sites	–
B1	–	17.3 µM
